Data set [1] has as its system ELOVL2 promoter. Kind of data set: ELOVL2 methylation by MeDIP in mouse retinas after intraocular injection. The format is in vivo. The following applies: mouse retina, 1 μL of 2 μM intraocular every other week for 2 months from age 10 months, vs PBS eye; MeDIP (FIG. 5A). The procedure:
(§1) Finally, it was investigated whether the aging characteristics in mouse eyes could be reverted by DNA demethylation, including the ELOVL2 promoter. To do that, each mouse was injected with 1 μL of 2 μM 5-Aza-dc in one eye and 1 μL of PBS in the other eye, every other week over a period of 2 months starting at age of 10 months. It was found, using the MeDIP method, that methylation of the ELOVL2 promoter decreased after treatment (FIG. 5A).
(§2) DNA and RNA were isolated from human fibroblasts and mouse tissues with TRIzol (Ambion) according to manufacturer's instructions. RNA was converted to cDNA with iScript cDNA Synthesis Kit (Bio-Rad). qPCR was performed using SsoAdvanced Universal SYBR Green Supermix (Bio-Rad).
Methylated DNA Immunoprecipitation (MeDIP) was performed by shearing 1 μg DNA by Bioruptor (Diagenode) for 8 cycles on the high setting, each cycle consisting of 30 seconds on and 30 seconds off. Sheared DNA was denatured, incubated with 1 μg 5 mC antibody MABE146 (Millipore) for 2 hours, then with SureBeads protein G beads (Bio-Rad) for 1 hour. After washing, DNA was purified with QIAquick PCR Purification Kit (Qiagen). qPCR was then performed as above.
All animal procedures were conducted with the approval of the Institutional Animal Care Committee at the University of California, San Diego. C57BL/6N mouse zygotes were injected with CRISPR-Cas9 constructs. […]

For data set [2], the system named is WI-38 cells. Nature of the data set: Senescence-associated β-galactosidase staining of 5-Aza-dc treated WI-38 cells. It is filed as cell-based, human. Particulars: WI-38 fibroblasts, 2 μM; SA-β-Gal staining (FIG. 2C). The procedure:
(§3) The effect of the ELOVL2 promoter methylation level on ELOVL2 expression was tested. WI-38 fibroblasts were treated with 5-Aza-2′-deoxycytidine (5-Aza-dc), a cytidine analog that inhibits DNA methyltransferase. The cells were treated for 2 days with 2 μM 5-Aza-dc followed by 5 days of culture without the compound. At the end of experiment, the expression of ELOVL2 was measured by qRT-PCR.
WI-38 and IMR-90 human fibroblasts were cultured in EMEM (ATCC) supplemented with 10% fetal bovine serum (Omega) and 1% penicillin/streptomycin (Gibco), and kept in a humidified incubator at 5% CO2 and 37° C. Confluence was calculated via ImageJ imaging software, including 3 fields of view per sample (10×). Upon confluence, cells were split and seeded at a 1:3 ratio. Population doublings (PD) were calculated by cell count. Knockdown lentivirus was generated using MISSION shRNA (Sigma) according to the manufacturer's instructions. […]
The SA-β-gal activity in cultured cells was determined using the Senescence β-Galactosidase Staining Kit (Cell Signaling Technology), according to the manufacturer's instructions. Cells were stained with DAPI afterwards, and percentages of cells that stained positive were calculated with imaging software (Keyence), including 3 fields of view (10×).

Data set [3] concerns ELOVL2 gene expression. Kind of data set: Human clinical use example: ELOVL2 gene expression in intravitreal fluid after intravitreal decitabine. It is filed as in vivo. The procedure: (§4) A person with bilateral, dry age-related macular degeneration (AMD) is seen in an ophthalmology clinic. They are otherwise healthy. They consent to an experimental study comparing demethylation therapy verses control. At baseline both eyes show a similar level of AMD as evidenced by clinical assessments for visual acuity, size of geographic atrophy as measured by autofluorescence, optical coherence tomography, and scotopic response on electroretinography. The patient is treated with 100 uL of decitabine (20 uM) formulated as a sterile, isotonic, pH buffered solution administered by intravitreal injection in their left eye (active treatment). They receive 100 ul of the same sterile, isotonic, pH buffered solution but without decitabine administered by intravitreal injection in their right eye (control treatment). Immediately following the administration of the active and control treatments, a sample of intravitreal fluid is withdrawn from each eye for baseline measurements of ELOVL2 expression and methylation level. It is observed that ELOVL2 is hypermethylated to a similar extent in both eyes. The levels of ELOVL2 expression are also similar and a low level of expression is observed in both eyes. […]
(§5) A person with dry age-related macular degeneration (AMD) with Geographic Atrophy is seen in an ophthalmology clinic. Their vision as assessed by scotopic response is declining. […]

Data set [4] concerns ELOVL2 methylation. Nature of the data set: Human clinical use example: ELOVL2 methylation in intravitreal fluid after intravitreal decitabine. It is filed as in vivo. The procedure: as §4, §5
Data set [5] concerns mouse eyes. Kind of data set: Scotopic ERG response in mouse eyes after intraocular injection. The following applies: 1 μL of 2 μM intraocular every other week for 2 months from age 10 months, vs PBS eye (FIG. 5C, FIG. 13). It is filed as in vivo. The procedure:
as §1
(§6) All animal procedures were conducted with the approval of the Institutional Animal Care Committee at the University of California, San Diego. C57BL/6N mouse zygotes were injected with CRISPR-Cas9 constructs. Oligos were injected into the cytoplasm of the zygotes at the pronuclei stage. Mice were housed on static racks in a conventional animal facility, and were fed ad libitum with Teklad Global 2020X diet. For the 5-Aza-dc injection study, mice were anesthetized by intraperitoneal injection of ketamine/xylazine (100 mg/kg and 10 mg/kg, respectively), and given an analgesic eye drop of Proparacaine (0.5%, Bausch & Lomb). Animals were intraocularly injected with 1 μL of PBS in one eye, and 1 μL of 2 μM 5-Aza-dc dissolved in PBS in the contralateral eye, every other week over a period of 2 months.
Electroretinograms (ERGs) were performed following a previously reported protocol. […]

Data set [6] concerns patient with dry AMD. Kind of data set: Human clinical use example: clinical assessments (scotopic response, geographic atrophy) after intravitreal decitabine. The format is in vivo. The procedure:
A person with bilateral, dry age-related macular degeneration (AMD) is seen in an ophthalmology clinic. They are otherwise healthy. They consent to an experimental study comparing demethylation therapy verses control. At baseline both eyes show a similar level of AMD as evidenced by clinical assessments for visual acuity, size of geographic atrophy as measured by autofluorescence, optical coherence tomography, and scotopic response on electroretinography. The patient is treated with 100 uL of decitabine (20 uM) formulated as a sterile, isotonic, pH buffered solution administered by intravitreal injection in their left eye (active treatment). They receive 100 ul of the same sterile, isotonic, pH buffered solution but without decitabine administered by intravitreal injection in their right eye (control treatment). Immediately following the administration of the active and control treatments, a sample of intravitreal fluid is withdrawn from each eye for baseline measurements of ELOVL2 expression and methylation level. It is observed that ELOVL2 is hypermethylated to a similar extent in both eyes. The levels of ELOVL2 expression are also similar and a low level of expression is observed in both eyes. Both the active and control treatments are continued in the left and right eyes respectively with administrations every other week for 3 months. […] Immediately following the last administration, samples of intravitreal fluid are obtained from both eyes for measurement of ELOVL2 gene expression and methylation. The same clinical assessments for geographic atrophy performed at baseline are repeated for each eye. Significant differences are observed between the eye treated with decitabine compared to control. In the decitabine treated eye, ELOVL2 methylation is reduced by almost 30% and ELOVL2 gene expression is increased also by about 30% compared to baseline. Also, the scotopic response is increased by about 30% over baseline. […] In marked contrast, there is no observable change in the control eye in any of the other parameters. Gene methylation and gene expression and scotopic response values remain similar to those observed at baseline values. The patient returns to the clinic for a follow up visit at 6 months. […] Scotopic response in the control eye remains similar to the baseline value.
A person with dry age-related macular degeneration (AMD) with Geographic Atrophy is seen in an ophthalmology clinic. Their vision as assessed by scotopic response is declining. […] They are otherwise healthy. The patient is treated with 100 uL of decitabine (15 uM) formulated as a sterile, isotonic, pH buffered solution administered by intravitreal injection. […] The decitabine treatment is continued with the same dose administered every 5 weeks over a 12 month period. […] Following the last decitabine administration a sample of vitreous fluid is obtained and tested for ELOVL2 gene methylation and ELOVL2 gene expression. The studies reveal ELOVL2 methylation has decreased by almost 60% (from baseline) and ELOVL2 gene expression is increased by about 50% (over the baseline value).

The test system of data set [7] is ELOVL2 expression. Nature of the data set: ELOVL2 expression by qRT-PCR in 5-Aza-dc treated WI-38 cells. The format is cell-based, human. The following applies: WI-38 fibroblasts, 2 μM for 2 days followed by 5 days without the compound; qRT-PCR vs untreated control (FIG. 2B). The procedure: as §3
(§7) WI-38 and IMR-90 human fibroblasts were cultured in EMEM (ATCC) supplemented with 10% fetal bovine serum (Omega) and 1% penicillin/streptomycin (Gibco), and kept in a humidified incubator at 5% CO2 and 37° C. Confluence was calculated via ImageJ imaging software, including 3 fields of view per sample (10×). Upon confluence, cells were split and seeded at a 1:3 ratio. Population doublings (PD) were calculated by cell count. Knockdown lentivirus was generated using MISSION shRNA (Sigma) according to the manufacturer's instructions. 5-Aza-2′-deoxycitidine was purchased from TSZ Chem (CAS #2353-33-5), and dissolved in cell culture medium at a concentration of 2 μM. Cells were treated for a period of 48 hours. The medium was then replaced with regular cell culture medium, and the cells were cultured for 5 more days.
(§8) DNA and RNA were isolated from human fibroblasts and mouse tissues with TRIzol (Ambion) according to manufacturer's instructions. […]
(In general: In qPCR the cycle at which signal appears reflects the starting amount.)

Data set [8] has as its system patient with dry AMD. Nature of the data set: Human clinical use example: tolerability of intravitreal decitabine. The format is in vivo. The procedure: as §4, §5
Data set [9] concerns ELOVL2 promoter. Nature of the data set: ELOVL2 promoter methylation by MeDIP followed by qPCR in 5-Aza-dc treated WI-38 cells. The following applies: WI-38 fibroblasts, 2 μM for 2 days followed by 5 days of culture without the compound; MeDIP-qPCR vs untreated control (FIG. 2A). The format is cell-based, human. The procedure: as §3, §7, §8
In data set [10] the test system is ELOVL2 expression. Nature of the data set: ELOVL2 expression by qPCR in mouse retinas after intraocular injection. Particulars: mouse retina, 1 μL of 2 μM intraocular every other week for 2 months from age 10 months, vs PBS eye; qPCR (FIG. 5B). The format is in vivo. The procedure: as §1, §2
as §6, with “Animals were intraocularly injected with 1 μL of PBS in one eye, and 1 μL of 2 μM 5-Aza-dc dissolved in PBS in the contralateral eye, every other week over a period of 2 months.” left out

[11] abbreviates: Geographic Atrophy patient, 100 uL of 15 uM intravitreal every 5 weeks over 12 months.
[12] abbreviates: dry AMD patient, 100 uL of 20 uM intravitreal every other week for 3 months.

Results on one compound are retold here after patent publication US10632211B2, “Demethylation to treat eye disease” (The Regents of the University of California, priority 2018, dated 2020).

As for `Nc1ncn([C@H]2C[C@H](O)[C@@H](CO)O2)c(=O)n1` [5-Aza-dc, 5-Aza-2′-deoxycytidine], the “methylation of the ELOVL2 promoter” value in data set [1] is reported as “decreased”. Also, the “percentage of senescent cells in culture” value in data set [2] is “lower percentage of senescent cells”. For the same compound, the “ELOVL2 gene expression increased over the baseline value” in data set [3] (setting [11]) is on record as “about 50%”. In addition, the “ELOVL2 gene expression increased compared to baseline” value in data set [3] (setting [12]) is on record as “about 30%”. Moreover, the “ELOVL2 methylation decreased from baseline” value in data set [4] (setting [11]) is given as about 60%. The “ELOVL2 methylation reduced compared to baseline” value in data set [4] (setting [12]) is given as “about 30%”. In addition, the “scotopic response (ERG)” value in data set [5] was “improved”. The “geographic atrophy growth by fundus autofluorescence” value in [6] (setting [11]) was “no geographic atrophy growth”. Also, the “scotopic response increased over baseline” value in data set [6] (setting [11]) is on record as “about 30%”; in data set [6] (dry AMD patient, 100 uL of 20 uM intravitreal every other week for 3 months, after last administration), “about 30%”. Besides, the “scotopic response improvement over baseline” value in [6] (dry AMD patient, 20 uM bi-weekly for 3 months, follow up visit at 6 months) is listed as 20%-30%. Moreover, in data set [6] (setting [12]), the “growth of geographic atrophy by fundus autofluorescence compared to baseline” value is on record as “no progression”. Also, the ELOVL2 expression result in [7] and in data set [10] was “upregulated” throughout. The figures for the tolerability result in data set [8] (setting [11]) and in [8] (setting [12]) were “well tolerated with no adverse effects observed” and “equally well tolerated”, respectively. Further, the ELOVL2 promoter methylation entry in data set [9] is “reduced”.
